Reference: patent US20160222021A1, “ARYL ETHER-BASE KINASE INHIBITORS” (BRISTOL-MYERS SQUIBB COMPANY, priority 2013, published 2016)

Key:
mice = experiment: formalin paw test; type: in vivo, mouse
Protocol: AAK1 homozygous (−/−) and their wild-type (+/+) littermates were tested using the formalin paw test in order to assess their acute and tonic nociceptive responses. For these tests, Automatic Nociception Analyzers (purchased from the Ozaki lab at University of California, San Diego) were used. A metal band was placed around the left hind paw of each mouse 30 minutes prior to testing. After the 30-minute acclimation period, 20 μl of 5% formalin is subcutaneously injected in the dorsal surface of the left hind paw. Mice were individually housed in cylindrical chambers for 45 minutes. Fresh 5% formalin solution was prepared by diluting formaldehyde (Formalde-fresh 20%, Fisher Scientific, Fair Lawn, N.J.) with distilled water. Investigatory compounds were administered 30 minutes prior to formalin injection.
A computer recorded flinches per minute, total flinches for phase I (acute phase=first 8 minutes), and total flinches for phase II (tonic phase=time between minutes 20-40) through an electromagnetic field. See Yaksh T L, Ozaki G, McCumber D, Rathbun M, Svensson C, Malkmus S, Yaksh M C. An automated flinch detecting system for use in the formalin nociceptive bioassay. J Appl Physiol., 2001; 90:2386-402.
The same test was used to confirm that the administration of an AAK1 inhibitor can also affect pain response.
A compound of the disclosure was tested in this assay at different doses. Gabapentin and pregabalin were used as positive controls. Results are shown below in Table 2, wherein the effect of gabapentin at 200 mg/kg is considered a 100% response, the % response for the other compounds is relative to the 200 mg/kg dose of gabapentin, “sc” means subcutaneous administration.

PC12 cells = conditions: Kuai et al. 2011; cited from earlier work
GST-Xa-hAAK1 = target: T1, GST-Xa-hAAK1 (Homo sapiens, UniProt Q2M2I8); experiment: AAK1 Kinase Assay; type: biochemical; conditions: ATP 22 μM; IC50 ranges
T1 construct: made in house
T1 sequence (Q2M2I8 whole entry): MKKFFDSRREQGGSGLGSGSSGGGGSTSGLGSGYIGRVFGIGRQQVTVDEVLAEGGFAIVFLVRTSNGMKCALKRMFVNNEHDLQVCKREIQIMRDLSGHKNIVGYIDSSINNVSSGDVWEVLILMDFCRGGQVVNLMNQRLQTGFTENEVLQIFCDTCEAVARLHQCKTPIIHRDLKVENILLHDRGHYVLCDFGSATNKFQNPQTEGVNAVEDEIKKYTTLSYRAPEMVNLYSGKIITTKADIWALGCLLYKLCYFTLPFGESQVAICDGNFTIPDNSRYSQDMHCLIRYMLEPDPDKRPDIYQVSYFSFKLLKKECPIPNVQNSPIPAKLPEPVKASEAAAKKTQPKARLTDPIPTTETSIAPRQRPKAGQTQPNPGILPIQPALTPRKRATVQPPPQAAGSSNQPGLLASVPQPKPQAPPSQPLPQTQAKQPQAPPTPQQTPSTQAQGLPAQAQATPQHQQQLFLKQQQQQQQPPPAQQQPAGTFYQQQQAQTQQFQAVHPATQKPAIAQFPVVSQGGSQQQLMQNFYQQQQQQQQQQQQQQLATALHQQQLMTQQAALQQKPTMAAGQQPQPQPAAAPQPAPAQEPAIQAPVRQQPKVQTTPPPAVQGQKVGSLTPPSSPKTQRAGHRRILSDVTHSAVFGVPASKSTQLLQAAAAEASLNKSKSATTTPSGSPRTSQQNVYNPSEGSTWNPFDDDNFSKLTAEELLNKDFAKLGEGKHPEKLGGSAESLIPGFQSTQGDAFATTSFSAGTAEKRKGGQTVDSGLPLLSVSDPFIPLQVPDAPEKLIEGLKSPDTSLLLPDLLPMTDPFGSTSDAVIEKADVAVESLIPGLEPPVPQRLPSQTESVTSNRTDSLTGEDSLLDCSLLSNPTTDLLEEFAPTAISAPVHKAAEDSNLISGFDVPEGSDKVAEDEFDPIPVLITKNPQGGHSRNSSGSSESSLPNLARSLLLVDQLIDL
Protocol: The assays were performed in U-bottom 384-well plates. The final assay volume was 30 μl prepared from 15 μl additions of enzyme and substrates (fluoresceinated peptide (5-FAM)-Aha-[…]-NH2 and ATP) and test compounds in assay buffer (10 mM Tris-HCL pH 7.4, 10 mM MgCl2, 0.01% Tween-20 and 1.0 mM DTT). The reactions were initiated by the combination of bacterially expressed, GST-Xa-hAAK1 with substrates and test compounds. The reactions were incubated at room temperature for 3 hours and terminated by adding 60 μl of 35 mM EDTA buffer to each sample. The reactions were analyzed on the Caliper LabChip 3000 (Caliper, Hopkinton, Mass.) by electrophoretic separation of the fluorescent substrate and phosphorylated product. […] The final concentration of reagents in the assays are ATP, 22 μM; (5-FAM)-Aha-[…]-NH2, 1.5 μM; GST-Xa-hAAK1, 3.5 nM; and DMSO, 1.6%. Dose response curves were generated to determine the concentration required inhibiting 50% of kinase activity (IC50). Compounds were dissolved at 10 mM in dimethylsulfoxide (DMSO) and evaluated at eleven concentrations. IC50 values were derived by non-linear regression analysis.

[1] = target: AAK1 (full length human) in HEK293F cells (Homo sapiens, UniProt Q2M2I8); experiment: HEK293F Cell-Based Assay (phospho-mu2 Western blot); conditions: 3 hours, IC50 ranges
Sequence of AAK1 (full length human) in HEK293F cells (Q2M2I8 1-822 limits assumed): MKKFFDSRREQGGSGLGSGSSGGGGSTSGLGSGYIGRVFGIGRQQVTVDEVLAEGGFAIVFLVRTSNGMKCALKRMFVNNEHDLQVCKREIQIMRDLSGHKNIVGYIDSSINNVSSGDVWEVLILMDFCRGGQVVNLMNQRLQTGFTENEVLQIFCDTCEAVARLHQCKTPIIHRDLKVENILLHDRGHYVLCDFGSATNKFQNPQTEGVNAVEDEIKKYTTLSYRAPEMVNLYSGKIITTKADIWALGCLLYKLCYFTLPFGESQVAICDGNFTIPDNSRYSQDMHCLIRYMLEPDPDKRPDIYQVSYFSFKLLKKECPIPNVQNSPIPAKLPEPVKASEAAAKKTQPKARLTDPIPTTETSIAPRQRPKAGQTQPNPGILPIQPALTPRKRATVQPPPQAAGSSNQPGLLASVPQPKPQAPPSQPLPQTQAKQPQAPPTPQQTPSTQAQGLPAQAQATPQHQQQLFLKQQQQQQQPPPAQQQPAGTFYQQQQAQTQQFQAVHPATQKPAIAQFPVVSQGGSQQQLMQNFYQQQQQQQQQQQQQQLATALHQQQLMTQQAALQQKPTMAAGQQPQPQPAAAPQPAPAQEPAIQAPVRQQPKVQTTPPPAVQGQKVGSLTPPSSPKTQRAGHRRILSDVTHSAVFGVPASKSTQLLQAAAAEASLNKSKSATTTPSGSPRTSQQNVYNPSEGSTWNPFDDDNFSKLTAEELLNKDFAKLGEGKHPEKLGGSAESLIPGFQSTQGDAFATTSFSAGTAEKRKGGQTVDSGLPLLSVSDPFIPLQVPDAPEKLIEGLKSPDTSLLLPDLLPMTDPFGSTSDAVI
Protocol: HEK293F cells were cultured in media containing DMEM (Gibco, cat. #11965), 10% FBS (SAFC Biosciences, cat. #12103C), 1×GPS (glutamine, penicillin and streptomycin). On day one, cells were plated on a 10 cm dish so that they are ˜80% confluent at time of transfection. Roughly 12 million cells were in a 10 cm dish at time of transfection. On day two, each dish was transfected with 48 ug DNA and 144 ul Lipofectamine 2000 (Invitrogen, cat. #11668-019). The DNA was comprised of a mixture (per 10 cm dish) containing 3 ug AAK1/HA/pIRES (full length human, NCBI accession no. NP_055726.2), 45 μg Flag/AP2MI/pcDNA (full length human), and 1.5 ml OPTI-MEM. The Lipofectamine 2000 is made up of a mixture (per 10 cm dish) containing 144 μl Lipofectamine 2000 and 1.5 ml OPTI-MEM. Each mixture was transferred to individual 15 ml tubes and incubated at RT for 5 minutes, and then the two mixes were combined and incubated at RT for 20 minutes. Growth media was then aspirated from each 10 cm plate and replaced with 10 ml of DMEM+10% FBS (no GPS). Finally, 3 ml DNA/Lipofectamine mix was added to each 10 cm dish and mix gently followed by incubate of plate overnight at 37° C. and 5% CO2.
On day three, compounds were diluted in 100% DMSO at 1000× final concentration, followed by 3-fold serial dilutions for a total of 5 concentrations tested. Four compounds were tested per 10 cm dish. One ul of each compound dilution was then pipetted into a deep-well, 96-well plate, followed by addition of 500 μl DMEM+0.5% FBS into each well for a 2× final concentration of each compound. Cells were resuspended in a 10 cm dish by simple pipetting (HEK293 cells come off the plate that easy at this point) and then transferred to a 50 ml conical tube and pelleted by centrifugation at 1000 rpm for 5 min. Cell pellets were then resuspended in 2.75 ml DMEM+0.5% FBS per 10 cm dish and 100 μl of cell suspension transferred into each well of 96-well TC plate. Finally, 100 μl of 2× compound diluted in DMEM+0.5% FBS was then added into wells containing cell suspension for a 1× final concentration. Plates were then incubated at 37° C. and 5% CO2 for 3 hours followed by transferring of cell suspensions from each well into 12-tube PCR strips. The PCR strips were spun in a tip rack at 1000 rpm for 5 minutes to pellet cells and media was then removed by pipetting without disturbing the cell pellet.
To prepare for Western Blot analysis, cell pellets were resuspend in 40 ul 1× LDS-PAGE sample buffer (Invitrogen, cat. # NP0008)+2× Halt phophatase and protease inhibitor cocktail (Thermo Scientific, cat. #1861284), followed by sonicating each with microtip sonicator set at 5 for 8-10 seconds. Five ul of 10× NuPage Sample Reducing Agent (with 50 mM DTT) was to each sample followed by heat denaturing at 70 C for 10 min on PCR machine. A total of 10 μl per sample was loaded into each lane of a 4-20% Tris-Glycine Criterion 26-well gel (Biorad, cat. #345-0034) for the phospho-mu2 blot and 10 μl per lane in a 4-12% Bis-Tris (+MES buffer) NuPAGE 26-well gel (Invitrogen, cat. # WG1403BX10) for the mu2 blot. For controls, 2 ng of phospho-mu2 or 20 ng mu2/Flag proteins were loaded in the last well of each gel. After SDS-PAGE, samples on each gel were transferred to PVDF membrane using an iBlot and membranes were blocked for one hour in TBST+5% milk, followed by wash 3× for 5-10 min with TBST. Criterion gels were probed with rabbit anti-phospho-mu2 (1:5000; a rabbit polyclonal antibody produced by New England Peptide and affinity purified at Lexicon) in TBST+5% BSA, whereas, NuPAGE gels were probed with mouse anti-Flag (1:500; Sigma, cat. # F1804) in TBST+5% milk, and these primary antibodies were incubated overnight at 4° C. on a rocker. […]

[2] = 50 mg/kg sc, relative to gabapentin 200 mg/kg = 100% response

Row | Compound | IC50 (GST-Xa-hAAK1) | IC50 [1] | other results
1 | NCC1(CC(=O)O)CCCCC1 [Gabapentin] | – | – | Response (mice; [2]): 60%; Response (mice; 200 mg/kg sc, considered a 100% response): 100%
2 | COC(=O)[C@@]1(O)C[C@H]2O[C@]1(C)n1c3ccccc3c3c4c(c5c6ccccc6n2c5c31)C(=O)NC4 [Example K252a, K252a] | – | – | effect on Neuregulin-1 induced neurite outgrowth (PC12 cells): potentiation of Neuregulin-1 induced neurite outgrowth
3 | CC(C)C[C@H](CN)CC(=O)O [Pregabalin] | – | – | Response (mice; [2]): 90%
4 | COC(=O)Nc1cc2c(cn1)COc1cc(OCC(C)(N)CC(C)C)ccc1-2 (racemic) [Example 60, methyl (8-((2-amino-2,4-dimethylpentyl)oxy)-5H-chromeno[3,4-c]pyridin-2-yl)carbamate] | 0.001 to 0.01 µM | 0.001 to 0.01 µM | –
5 | CC1Oc2cc(OCC(N)CCC(F)(F)F)ccc2-c2ccncc21 (stereo not shown) [Example 57, 5,5,5-trifluoro-1-((5-methyl-5H-chromeno[3,4-c]pyridin-8-yl)oxy)pentan-2-amine] | 0.001 to 0.01 µM | 0.01 to 0.1 µM | –
6 | CCOC(=O)Nc1cc2c(cn1)COc1cc(OC[C@@H](N)CC(C)C)ccc1-2 [Example 77, (S)-ethyl (8-((2-amino-4-methylpentyl)oxy)-5H-chromeno[3,4-c]pyridin-2-yl)carbamate] | 0.001 to 0.01 µM | 0.001 to 0.01 µM | –
7 | CC(=O)Nc1cc2c(cn1)COc1cc(OC[C@](C)(N)CC(C)C)ccc1-2 [Example 46, (R)—N-(8-((2-amino-2,4-dimethylpentyl)oxy)-5H-chromeno[3,4-c]pyridin-2-yl)acetamide] | 0.001 to 0.01 µM | 0.001 to 0.01 µM | –
8 | CCC(=O)Nc1cc2c(cn1)COc1cc(OC[C@@H](N)CC(C)C)ccc1-2 [Example 73, (S)—N-(8-((2-amino-4-methylpentyl)oxy)-5H-chromeno[3,4-c]pyridin-2-yl)propionamide] | 0.001 to 0.01 µM | 0.01 to 0.1 µM | –
9 | COC(=O)Nc1cc2c(cn1)COc1c-2ccc(OCC(C)(N)CC(C)C)c1OC(F)F (racemic) [Example 76, methyl (8-((2-amino-2,4-dimethylpentyl)oxy)-7-(difluoromethoxy)-5H-chromeno[3,4-c]pyridin-2-yl)carbamate] | < 0.001 µM | 0.001 to 0.01 µM | –
10 | COC(=O)Nc1cc2c(cn1)COc1cc(OCC(C)(N)CC(C)C)ccc1-2 (stereo not shown) [Example 67, methyl (8-((2-amino-2,4-dimethylpentyl)oxy)-5H-chromeno[3,4-c]pyridin-2-yl)carbamate] | 0.001 to 0.01 µM | 0.01 to 0.1 µM | –
11 | COc1c(OCC(C)(N)CC(C)C)ccc2c1OCc1cnc(NC(C)=O)cc1-2 (racemic) [Example 66, N-(8-((2-amino-2,4-dimethylpentyl)oxy)-7-methoxy-5H-chromeno[3,4-c]pyridin-2-yl)acetamide] | < 0.001 µM | 0.001 to 0.01 µM | –
12 | CC(C)C[C@@H](N)COc1ccc2c(c1)OCc1cnccc1-2 [Compound 5, (R)-1-(5H-chromeno[3,4-c]pyridin-8-yloxy)-4-methylpentan-2-amine] | – | – | Response (mice; 10 mg/kg sc, relative to gabapentin 200 mg/kg = 100% response): 45%; Response (mice; 30 mg/kg sc, relative to gabapentin 200 mg/kg = 100% response): 88%
